Source: patent US20240197869A1, “HYPERACTIVATORS OF MAMMALIAN DENDRITIC CELLS” (Corner Therapeutics, Inc., priority 2021, published 2024)
“Also recorded” adds a separate entry of the source.

Experiments:
[1] = tested on: canine peripheral blood mononuclear cells (PBMCs); assay: Viability of canine PBMCs (CellTiter-Glo); format: cell-based; conditions: lipid combined with R848, 2 days, relative to R848 alone
Protocol: (§1) Isolation of PBMCs from Whole Blood. PBMCs were isolated from whole blood using density gradient centrifugation with Ficoll-Paque PLUS (Cytivia). Whole blood was diluted 1:1 with PBS, layered on top of Ficoll-Paque PLUS and centrifuged at 1000×g for 30 minutes at room temperature. PBMCs were collected, washed twice in PBS, and incubated with Ack lysis buffer (Lonza) to remove any remaining red blood cells.
(§2) Cell Culture and Stimulation. […] Cells were plated at 1×10^5 (canine cells) or 1×10^6 (human cells) per well in 96-well flat bottom tissue culture plates. Lyophilized Vaccigrade R848 (Invivogen) was reconstituted and diluted according to manufacturer's recommendations and added to cells at a final concentration of 1 μg/mL.
Quantification of Cell Viability.

[2] = tested on: human PBMCs; assay: Cytokine secretion (IL-1β, IFNγ, TNFα) by human PBMCs; format: cell-based
Protocol: as §1, §2
Quantification of Cytokine Secretion. IL-1β secretion from human PBMCs was assessed using one of the following kits: ELISA MAX Deluxe Set Human IL-1β kit (Biolegend), Invitrogen Human IL-1β kit, or the Lumit™ Human IL-1β Immunoassay (Promega). IFNγ secretion from human PBMCs was assessed using the ELISA MAX Deluxe Set Human IFNγ (Biolegend) and TNFα secretion from human PBMCs was assessed using the Human TNFα Uncoated ELISA kit (Invitrogen). ELISAs were performed according to manufacturer's instructions with the following modifications: i) total sample+buffer volume for incubation was reduced from 100 μL to 50 μL; ii) the top standard was prepared at […], with two-fold dilutions to […]; and iii) sample incubation was completed overnight at 4 C on an orbital shaker. Lumit™ assays were performed according to manufacturer's instructions. IL-1β secretion from canine PBMCs was assessed using the Canine IL-1β/IL-1F2 DuoSet ELISA (R&D) according to manufacturer's instructions with the following modifications: i) total sample+buffer volume for incubation was reduced from 100 μL to 50 μL; ii) sample incubation was completed overnight at 4° C. on an orbital shaker. For all ELISAs, absorbance was measured at 450 nm, with a 570 nm correction, using a Spectramax M5e plate reader (Molecular Devices). For Lumit™ assays, luminescence was measured on all wavelengths using a Spectramax M5e plate reader (Molecular Devices) with an integration time of 500 ms. To determine cytokine concentrations in supernatants, sample concentrations were interpolated using a standard curve via 4PL analysis on GraphPad Prism 9 (GraphPad Software). The interpolated results of samples were then adjusted for any dilutions made to the supernatant.

[3] = tested on: human memory CD4+ T cells; assay: Human moDC coculture with memory CD4 T cells: cytokine secretion; format: cell-based; conditions: moDC treated with R848 + lipid; limiting anti-CD3; 2 days after T cell addition
Text: Human moDC coculture with memory CD4 T cells. Human monocytes were isolated from leukopheresis products using Miltenyi StraightFrom LeukoPak CD14 microbeads as directed by manufacturer. Custom PBMC isolation microbead kits from Miltenyi were used to separate PBMCs from red blood cells and granulocytes from the same blood products. After PBMC purification, Miltenyi human memory CD4+ T cell isolation kits were used to negatively select the CD45RO+ fraction. Cells were cryogenically stored until ready for use in experiments.
Human monocytes were differentiated into dendritic cells as previously described using recombinant human GM-CSF and IL-4 for 6 days. moDCs were plated in R10 media at 5E4 cells/well into 96-well U-bottom microplates for hyperactivations. […] T cell stimulating anti-CD3 antibody was added into the culture (with or without blocking anti-IL-1beta antibody) prior to T cell addition. Autologous frozen memory CD4 T cells were thawed, resuspended in R10 media and added at 2.5×10^5 cells/well (ratio 1:5, DC:T cell). After two days incubation, cell culture supernatant was collected and used for measuring cytokine secretion. Commercially available kits such as Biolegend LegendPlex kits were used as directed by manufacturer's protocol to quantify cytokines of interest.
Four donors were tested with each experimental condition tested in triplicate. […]

[4] = tested on: human monocyte-derived dendritic cells (moDCs); assay: Lipid titration: IL-1β secretion by LPS-activated human moDCs; format: cell-based
Protocol: Quantification of IL-1beta Secretion. IL-1beta secretion was assessed using the ELISA MAX Deluxe Set Human IL-1beta kit (Biolegend). ELISAs were performed according to manufacturer's instructions with the following modifications: i) total sample volume for incubation was reduced from […] the top standard was prepared at […], with two-fold dilutions to […]; and iii) sample incubation was completed overnight at 4 C on an orbital shaker. […] To determine IL-1beta concentration in supernatants, sample IL-1beta concentrations were interpolated using a standard curve via 4PL analysis on GraphPad Prism 9 (GraphPad Software). The interpolated results of samples were then adjusted for any dilutions made to the supernatant.

[5] = tested on: canine peripheral blood mononuclear cells (PBMCs); assay: IL-1β secretion by canine PBMCs (ELISA); format: cell-based; conditions: lipid 82.5 μM combined with R848 1 μg/mL, 2 days
Protocol: as §1, §2
Quantification of Cytokine Secretion. IL-1β secretion from human PBMCs was assessed using one of the following kits: ELISA MAX Deluxe Set Human IL-1β kit (Biolegend), Invitrogen Human IL-1β kit, or the Lumit™ Human IL-1β Immunoassay (Promega). IFNγ secretion from human PBMCs was assessed using the ELISA MAX Deluxe Set Human IFNγ (Biolegend) and TNFα secretion from human PBMCs was assessed using the Human TNFα Uncoated ELISA kit (Invitrogen). […] IL-1β secretion from canine PBMCs was assessed using the Canine IL-1β/IL-1F2 DuoSet ELISA (R&D) according to manufacturer's instructions with the following modifications: i) total sample+buffer volume for incubation was reduced from 100 μL to 50 μL; ii) sample incubation was completed overnight at 4° C. on an orbital shaker. For all ELISAs, absorbance was measured at 450 nm, with a 570 nm correction, using a Spectramax M5e plate reader (Molecular Devices). For Lumit™ assays, luminescence was measured on all wavelengths using a Spectramax M5e plate reader (Molecular Devices) with an integration time of 500 ms. […]

[6] = tested on: murine, FLT3L-differentiated cDC1 and cDC2 cells; assay: Flow cytometry of surface markers on murine cDC1 and cDC2; format: cell-based, mouse
Protocol: Murine FLT3L-differentiated, bone marrow-derived DC (BMDC) generation. Leg femur and tibia were removed from mice, cut with scissors and flushed into sterile tubes. Bone marrow suspension was treated with ACK for 1 minute, then passed through a 40 um cell strainer. Cells were counted and resuspended in media consisting of complete IMDM containing 10% FBS, penicillin and streptomycin, and supplements of L-glutamine and sodium pyruvate (I10). Cells were then plated at 5E6 bone marrow cells per well in a P12 plate. Recombinant mouse FLT3L (Miltenyi) was added to cultures at 200 ng/mL. Differentiated cells were used for subsequent assays on day 9. The efficiency of differentiation was monitored by flow cytometry using BD Symphony A3, and CD11c+MHC-II+ cells were routinely above 80% of living cells. For each experiment, five mice were used to collect BM and to generate DCs.
Murine FLT3L-differentiated BMDC (FLT3L-BMDC) hyperactivation. BMDCs were washed with PBS and re-plated in FLT3L-containing 110 at a concentration of 1.5×10^5 cells/well. Stimuli were added to cultures at indicated concentrations for a final volume of 200 uL/well. Twenty-four hours post-stimulation, cell culture supernatant was collected after centrifugation and stored at −20° C. to measure cytokine secretion. IL-1b, IL-6, IL-12p40, and TNF-alpha ELISA were performed using eBioscience Ready-SET-Go! (now ThermoFisher) ELISA kits according to the manufacturer's protocols. Cell viability was measured using Promega's Cell Titer-Glo reagent kits.
Flow cytometry. After FcR blockade, treated FLT3L-BMDCs were washed and stained in PBS with Live Dead Fixable dye (ThermoFisher) for 20 minutes at 4° C. Cells were then washed again and stained for 20 minutes at 4° C. in MACS buffer (PBS with 1% FCS and 2 mM EDTA) containing the following fluorescently conjugated antibodies purchased from BioLegend: anti-CD11c, anti-I-A/I-E, anti-H-2Kb, anti-SIRPa, anti-CD24, anti-CD40, anti-CD45R, anti-CXCL16 and anti-CCR7. Data were acquired on a BD FACS Symphony (Becton-Dickenson). Data were analyzed using FlowJo software (Tree Star). […]

[7] = lipid combined with R848, 2 days

CCCCCCCCCCCCCCCCCCCCCC(=O)OC[C@@H](O)COP(=O)([O-])OCC[N+](C)(C)C [22:0 LYSO PC, 1-behenoyl-2-hydroxy-sn-glycero-3-phosphocholine]
relative cell viability (in words) [1]: remain viable | relative cell viability (in words) ([1]; listed as 22:0 LYSO): did not significantly reduce relative cell viability | IL-1β secretion (in words) ([2]; lipid 82.5 μM combined with R848 1 μg/mL, 2 days): elevated; also recorded: comparable or higher | IFNγ secretion, fold change per donor relative to R848 alone (in words) [2, 7]: highest fold change per donor; also recorded: comparable or higher | TNFα secretion, fold change per donor relative to R848 alone (in words) [2, 7]: highest fold change per donor; also recorded: comparable or higher | IFN-gamma (Th1 response) from cocultured memory CD4 T cells (in words) [3]: significantly stronger Th1 response | concentration lower than PGPC for comparable IL-1beta secretion ([4]; 10.3 μM 22:0 Lyso PC vs 82.5 μM PGPC, + LPS): ~8 times | IL-1beta secretion (in words) ([4]; 10.3 μM lipid + LPS): retained its ability to induce IL-1beta secretion | IL-1β secretion ([4]; 10.3 μM lipid + LPS 1 μg/mL, 2 days, Table 1-5): 224.8 pg/mL | IL-1beta secretion (in words) ([4]; 20.6 μM lipid + LPS): increased IL-1beta secretion | IL-1β secretion ([4]; 20.6 μM lipid + LPS, human moDCs, 4 donors, mean (SD in wrapped line below)): 512.6 pg/mL | lipid activity index, ranking in words ([4]; lipid 1.3-82.5 μM + LPS): most potent activity by far | Activity Units (AU) ± SD (lipid activity index) ([4]; reciprocal of lowest concentration giving IL-1β two-fold over LPS x highest IL-1β signal, lipid 1.3-82.5 μM + LPS): 370.00 ± 376.36 AU | IL-1β secretion (in words) [5]: comparable or higher levels of IL-1β compared to every other stimuli tested; also recorded: hyperactivated to a greater extent | CD40 expression (in words) ([6]; R848 + 41 uM lipid in 5% KP407, cDC1 and cDC2): strongly enhanced | MHC class I expression (in words) ([6]; R848 + lipid vs R848 alone): enhanced MHC class I expression on both cDC1 and cDC2 subsets | CCR7 expression (in words) ([6]; cDC1, R848 + lipid in KP407 formulation): increased their CCR7 expression significantly compared to R848 alone
